This note sets out measurements from US4000283A, “Compound 3,4,5-trimethoxyphenyl-(3,4-dimethyl-2-pyridyl)-carbonyl” (priority 1974, dated 1976).

The structures appear in SMILES notation.

The nature of series [1]: Acute toxicity in mice (i.p., Litchfield and Wilcoxon). The format is in vivo, albino I.C.R. Swiss mice. Particulars: mouse, in vivo, ip, albino I.C.R. Swiss mice, both sexes. Here is the method: (§1) The acute toxicity studies were carried out in albino I.C.R. Swiss mice weighing 30 ± 2 g, of both sexes. The products were administered intraperitoneally (i.p). The acute toxicity was calculated according to the method of Litchfield and Wilcoxon.

Series [2] deals with acetic acid-induced writhing. Nature of the series: Analgesia, acetic acid-induced writhing technique in mice. Type of series: in vivo, albino I.C.R. Swiss mice. Particulars: for No. of writhes (x ± M.S.E.): Table B-I, control 112.1 ± 4.2; for No. of writhes (x ± M.S.E.) / Number of writhes (x ± M.S.E.): 30 min before acetic acid, counted during 20 min; for Number of writhes (x ± M.S.E.): Table B-II, control 99.6 ± 5.6; for analgesic activity: mice, i.p., compared with dextropropoxyphene. As for the experimental part:
The analgesic action was investigated in albino I.C.R. Swiss mice, using the acetic acid-induced writhing technique. Groups each of 10 mice were assembled.
The analgesics were injected intraperitoneally (i.p), and after 30 minutes 0.25 ml of a 1% solution of acetic acid was injected i.p. A control group received acetic acid only. The number of writhes made by each mouse was counted during the 20 minutes following the administration of acetic acid.

Series [3] concerns albino I.C.R. Swiss mice. Briefly: Acute toxicity in mice (i.p., Litchfield and Wilcoxon). Type of series: in vivo. The settings on record: mice. As for the experimental part:
as §1

The mark [4] stands for this setting: dextropropoxyphene, 25 mg/kg i.p.

`CCC(=O)O[C@](Cc1ccccc1)(c1ccccc1)[C@H](C)CN(C)C` [Dextropropoxyphene, reference compound] yielded an LD50 in series [1] of 140 mg/kg. For the same compound, in series [2] (setting [4]), the “No. of writhes (x ± M.S.E.)” value was 22.8 ± 4.74 writhes and the “Number of writhes (x ± M.S.E.)” value is on record as 50.2 ± 4.4 writhes.
Regarding `COc1cc(CC2C(C)=C(C)CCN2C)cc(OC)c1OC` (centres unmarked) [Product I, 1,3,4-trimethyl-2-(3,4,5-trimethoxybenzyl)-1,2,5,6-tetrahydropyridine], the “Acute toxicity compared with dextropropoxyphene” value in series [3] is reported as “less toxic than dextropropoxyphene”. This compound also came in with an LD50 in series [1] of 154 mg/kg. Further, the “No. of writhes (x ± M.S.E.)” value in series [2] (Product I, 20 mg/kg i.p.) is recorded as 74.5 ± 4.84 writhes. Besides, in series [2], the “analgesic activity” value is given as “has analgesic activity but less than that of dextropropoxyphene”.
As to `COc1cc(C(O)c2nccc(C)c2C)cc(OC)c1OC` (centres unmarked) [Product II, 3,4,5-trimethoxyphenyl-(3,4-dimethyl-2-pyridyl)carbinol], in series [3], the “Acute toxicity compared with dextropropoxyphene” value is “less toxic than dextropropoxyphene”. The compound further yielded an LD50 in series [1] of 292 mg/kg. In series [2] (Product II, 40 mg/kg i.p.), the “Number of writhes (x ± M.S.E.)” value is recorded as 29 ± 7.3 writhes. For the same compound, in series [2], the “analgesic activity” value was “high analgesic activity”.
